Measurements reported in patent publication US20210355106A1, “NEW AMINO-PYRIMIDONYL-PIPERIDINYL DERIVATIVES, A PROCESS FOR THEIR PREPARATION AND PHARMACEUTICAL COMPOSITIONS CONTAINING THEM” (LES LABORATOIRES SERVIER, priority 2018, published 2021).

Assays:
USP7 = target: T1, USP7 (Homo sapiens, UniProt Q93009, C315A); assay: Inhibition of USP7 by Fluorescence Intensity (FLINT) readings, Ubiquitin-Rhodamine-110 substrate; format: biochemical; conditions: 0.25 nM His-His-USP7 (aa208-560), 60 minutes at 30° C. preincubation; Ki determined from IC50 according to Cer et al.
T1 construct: 0.25 nM His-His-USP7 (aa208-560, |C315A|) was incubated with compound; His-His (N)
T1 sequence (Q93009 208-560 C315A): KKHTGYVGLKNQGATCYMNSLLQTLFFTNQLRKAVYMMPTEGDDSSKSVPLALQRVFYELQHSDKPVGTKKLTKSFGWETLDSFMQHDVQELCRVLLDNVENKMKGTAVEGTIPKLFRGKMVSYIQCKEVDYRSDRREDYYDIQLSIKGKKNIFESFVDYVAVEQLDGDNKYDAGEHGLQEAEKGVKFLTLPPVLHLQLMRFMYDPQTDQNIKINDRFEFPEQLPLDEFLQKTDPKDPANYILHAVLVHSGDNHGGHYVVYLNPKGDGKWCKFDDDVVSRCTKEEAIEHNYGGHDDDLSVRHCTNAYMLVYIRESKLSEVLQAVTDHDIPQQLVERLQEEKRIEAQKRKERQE
Outline: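 His-tagged USP7 (aa208-560, C315A), 0.25 nM, preincubated with compound 60 min at 30 °C in 100 mM Bicine pH 8.0, 0.01% Triton X-100, 1 mM TCEP, 10% DMSO. Ubiquitin-Rhodamine-110 (50 nM or 4 μM) added; kinetic fluorescence (Ex 485/Em 535 nm) over 21 min; IC50 from 11-point curves, Ki derived from IC50.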

[1] = tested on: Z138 mantle cell lymphoma tumour cell lines; assay: In vitro cytotoxicity, MTT assay; format: cell-based; conditions: Homo sapiens, Z-138; Z138 cells, exposed to the test compounds for 96 hours
Outline: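 Z138 cells exposed to compounds for 96 hours, then MTT added for 4 hours. Formazan absorbance at 540 nm serves as the measure of viable cell number.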

SMILES | Ki (USP7) [nM] | IC50 [1] [nM]
Cc1nc(-c2ccc(F)cc2)sc1C(=O)N1CC[C@@H](C(=O)N2CCC(O)(Cn3cnc(Oc4ccc(F)cc4)c(N)c3=O)CC2)[C@H](c2ccccc2)C1 [Example 48, 5-amino-6-(4-fluorophenoxy)-3-[(1-((3R,4R)-1-[2-(4-fluorophenyl)-4-methyl-1,3-thiazole-5-carbonyl]-3-phenylpiperidine-4-carbonyl}-4-hydroxypiperidin-4-yl)methyl]pyrimidin-4(3H)-one] | 5.2 | 3
Cc1ccc(-c2nc(C)c(C(=O)N3CC[C@@H](C(=O)N4CCC(O)(Cn5cnc(Oc6ccc(CN)cc6)c(N)c5=O)CC4)[C@H](c4ccccc4)C3)s2)cn1 [Example 131] | 0.064 | 5.3
COc1cc(Oc2ncn(C[C@@]3(O)CCN(C(=O)[C@@H]4CCN(C(=O)c5sc(-c6ccc(C)nc6)nc5C)C[C@H]4c4ccccc4)CC3(F)F)c(=O)c2N)ccc1Cl [Example 184, 5-amino-6-(4-chloro-3-methoxy-phenoxy)-3-[[(4S)-3,3-difluoro-4-hydroxy-1-[(3R,4R)-1-[4-methyl-2-(6-methyl-3-pyridyl)thiazole-5-carbonyl]-3-phenyl-piperidine-4-carbonyl]-4-piperidyl]methyl]pyrimidin-4-one] | 7.28 | 3.96
Cc1nccc(CN2CC[C@@H](C(=O)N3CC[C@](O)(Cn4cnc(Oc5ccc(F)cc5)c(N)c4=O)C(F)(F)C3)[C@H](c3ccccc3)C2)n1 [Example 13, 5-amino-3-{[(4S)-3,3-difluoro-4-hydroxy-1-{(3R,4R)-1-[(2-methylpyrimidin-4-yl)methyl]-3-phenylpiperidine-4-carbonyl]piperidin-4-yl]methyl)-6-(4-fluorophenoxy)pyrimidin-4(31)-one] | 23.3 | 10.6
Cc1ccc(-c2nc(C)c(C(=O)N3CC[C@@H](C(=O)N4CC[C@](O)(Cn5cnc(Oc6ccccc6)c(N)c5=O)C(F)(F)C4)[C@H](c4ccccc4)C3)s2)cn1 [Example 119] | 1.53 | 4.3
Nc1c(Oc2cccc(C(F)(F)F)c2)ncn(CC2(O)CCN(C(=O)[C@@H]3CCN(C(=O)c4sc(I)cc4F)C[C@H]3c3ccccc3)CC2)c1=O [Example 99, 5-amino-3-[[1-((3R,4R)-1-(3-fluoro-5-iodo-thiophene-2-carbonyl)-3-phenyl-piperidine-4-carbonyl]-4-hydroxy-4-piperidyl]methyl]-6-[3-(trifluoromethyl)phenoxy]pyrimidin-4-one] | 56 | 120
Cc1nccnc1CN1CC[C@@H](C(=O)N2CC[C@](O)(Cn3cnc(Oc4ccc(F)cc4)c(N)c3=O)C(F)(F)C2)[C@H](c2ccccc2)C1 [Example 211, 5-amino-3-[[(4S)-3,3-difluoro-4-hydroxy-1-[(3R,4R)-1-[(3-methylpyrazin-2-yl)methyl]-3-phenyl-piperidine-4-carbonyl]-4-piperidyl]methyl]-4(4-fluorophenoxy)pyrimidin-4-one] | 27.7 | 24.9
COc1cc(Oc2ncn(C[C@@]3(O)CCN(C(=O)[C@@H]4CCN(Cc5nccnc5C)C[C@H]4c4ccccc4)CC3(F)F)c(=O)c2N)ccc1F [Example 219, 5-amino-3-[[(4S)-3,3-difluoro-4-hydroxy-1-[(3R,4R)-1-[(3-methylpyrazin-2-yl)methyl]-3-phenyl-piperidine-4-carbonyl]-4-piperidyl]methyl]-6-(4-fluoro-3-methoxy-phenoxy)pyrimidin-4-one] | 30.3 | 23.4
Nc1c(Oc2ccc(F)cc2)ncn(CC2(O)CCN(C(=O)[C@@H]3CCN(C(=O)c4cc(F)cc(F)c4)C[C@H]3c3ccccc3)CC2)c1=O [Example 129, 5-amino-3-[[1-[(3R,4R)-1-(3,5-difluorobenzoyl)-3-phenyl-piperidine-4-carbonyl]-4-hydroxy-4-piperidyl]methyl]-6-(4-fluorophenoxy)pyrimidin-4-one] | 2.87 | 5.2
Cn1c(C(=O)N2CC[C@@H](C(=O)N3CCC(O)(Cn4cnc(Oc5ccc(F)cc5)c(N)c4=O)CC3)[C@H](c3ccccc3)C2)ccc1-c1ccccc1 [Example 38] | 14 | 11
Cc1ccc(-c2nc(C)c(C(=O)N3CC[C@@H](C(=O)N4CCC(O)(Cn5cnc(Oc6ccc(CNC(=O)OC(C)(C)C)cc6)c(N)c5=O)CC4)[C@H](c4ccccc4)C3)s2)cn1 [Example 223, tert-butyl N-[[4-[5-amino-1-[[4-hydroxy-1-[(3R,4R)-1-[4-methyl-2-(6-methyl-3-pyridyl)thiazole-5-carbonyl]-3-phenyl-piperidine-4-carbonyl]-4-piperidyl]methyl]-6-oxo-pyrimidin-4-yl]oxyphenyl]methyl]carbamate] | 4.2 | 73.2
Nc1c(Oc2ccc(F)cc2)ncn(CC2(O)CCN(C(=O)[C@@H]3CCN(C4(c5ccccc5F)COC4)C[C@H]3c3ccccc3)CC2)c1=O [Example 109] | 65 | 11
Cc1nccc(CN2CC[C@@H](C(=O)N3CC[C@](O)(Cn4cnc(Oc5cccc(C(F)(F)F)c5)c(N)c4=O)C(F)(F)C3)[C@H](c3ccccc3)C2)n1 [Example 143, 5-amino-3-[[(4S)-3,3-difluoro-4-hydroxy-1-[(3R,4R)-1-[(2-methylpyrimidin-4-yl)methyl]-3-phenyl-piperidine-4-carbonyl]-4-piperidyl]methyl]-6-(3-(trifluoromethyl)phenoxy]pyrimidin-4-one] | 42 | 217
Cc1nccc(CN2CC[C@@H](C(=O)N3CC[C@](O)(Cn4cnc(Oc5ccc(Cl)cc5)c(N)c4=O)C(F)(F)C3)[C@H](c3ccccc3)C2)n1 [Example 168] | 38.5 | 13.8
Cc1ccc(-c2nc(C)c(C(=O)N3CC[C@@H](C(=O)N4CC[C@](O)(Cn5cnc(Oc6ccc(F)cc6)c(N)c5=O)C(F)(F)C4)[C@H](c4ccccc4)C3)s2)cn1 [Example 45] | 3.6 | 1.4
Cc1nc(Br)sc1C(=O)N1CC[C@@H](C(=O)N2CCC(O)(Cn3cnc(Oc4ccc(F)cc4)c(N)c3=O)CC2)[C@H](c2ccccc2)C1 [Example 29, 5-amino-3-({1-[(3R,4R)-1-(2-bromo-4-methyl-1,3-thiazole-5-carbonyl)-3-phenylpiperidine-4-carbonyl]-4-hydroxypiperidin-4-yl}methyl)-6-(4-fluorophenoxy)pyrimidin-4(3H)-one] | 7.1 | 1.8
Nc1c(Oc2ccc(F)cc2)ncn(CC2(O)CCN(C(=O)[C@@H]3CCN(Cc4cnccn4)C[C@H]3c3ccccc3)CC2)c1=O [Example 63] | 12.4 | 16.3
Nc1c(Oc2ccc(F)cc2)ncn(CC2(O)CCN(C(=O)[C@@H]3CCN(C(=O)c4cncc(-n5cccc5)c4)C[C@H]3c3ccccc3)CC2)c1=O [Example 163, 5-amino-6-(4-fluorophenoxy)-3-[[4-hydroxy-1-[(3R,4R)-3-phenyl-1-(5-pyrrol-1-ylpyridine-3-carbonyl)piperidine-4-carbonyl]-4-piperidyl]methyl]pyrimidin-4-one] | 9.76 | 1.41
Cc1nc(-c2ccc(N(C)C)nc2)sc1C(=O)N1CC[C@@H](C(=O)N2CCC(O)(Cn3cnc(Oc4ccc(F)cc4)c(N)c3=O)CC2)[C@H](c2ccccc2)C1 [Example 43, 5-amino-3-({1-[(3R,4R)-1-{2-[16-(dimethylamino)pyridin-3-yl-4-methyl-1,3-thiazole-5-carbonyl}-3-phenylpiperidine-4-carbonyl]-4-hydroxypiperidin-4-yl]}methyl)-6-(4-fluorophenoxy)pyrimidin-4(3H)-one] | 6.42 | 1.2
COc1cc(Oc2ncn(C[C@@]3(O)CCN(C(=O)[C@@H]4CCN(Cc5cncc(C)n5)C[C@H]4c4ccccc4)CC3(F)F)c(=O)c2N)ccc1F [Example 218, 5-amino-3-[[(4S)-3,3-difluoro-4-hydroxy-1-[(3R,4R)-1-[(6-methylpyrazin-2-yl)methyl]-3-phenyl-piperidine-4-carbonyl]-4-piperidyl]methyl]-6-(4-fluoro-3-methoxy-phenoxy)pyrimidin-4-one] | 30.1 | 11.5
Nc1c(Oc2cccc(C(F)(F)F)c2)ncn(CC2(O)CCN(C(=O)[C@@H]3CCN(C(=O)c4sc(-c5ccc(C(F)(F)F)nc5)cc4F)C[C@H]3c3ccccc3)CC2)c1=O [Example 124, 5-amino-3-[[1-[(3R,4R)-1-[3-fluoro-5-[16-(trifluoromethyl)-3-pyridyl]thiophene-2-carbonyl]-3-phenyl-piperidine-4-carbonyl]-4-hydroxy-4-piperidyl]methyl]-6-[3-(trifluoromethyl)phenoxy]pyrimidin-4-one] | 12 | 31.5
Cc1nc(-c2ccc(N(C)C)nc2)sc1C(=O)N1CC[C@@H](C(=O)N2CCC(O)(Cn3cnc(Oc4cccc(C(F)(F)F)c4)c(N)c3=O)CC2)[C@H](c2ccccc2)C1 [Example 126] | 4.44 | 29.5
Cc1nc(-c2ccc(C(F)(F)F)nc2)sc1C(=O)N1CC[C@@H](C(=O)N2CCC(O)(Cn3cnc(Oc4cccc(C(F)(F)F)c4)c(N)c3=O)CC2)[C@H](c2ccccc2)C1 [Example 125, 5-amino-3-[[4-hydroxy-1-[(3R,4R)-1-[4-methyl-2-[6-(trifluoromethyl)-3-pyridyl]thiazole-5-carbonyl]-3-phenyl-piperidine-4-carbonyl]-4-piperidyl]methyl]-6-[3-(trifluoromethyl)phenoxy]pyrimidin-4-one] | 7.98 | 26.6
COc1cc(Oc2ncn(C[C@@]3(O)CCN(C(=O)[C@@H]4CCN(Cc5nc(C)cc(C)n5)C[C@H]4c4ccccc4)CC3(F)F)c(=O)c2N)ccc1F [Example 217] | 42.6 | 23.1
